Laboratory results reported in US7939517B2, “1,4,6-androstatriene-3,17-dione (“ATD”) for therapeutic uses” (priority 2004, dated 2011).

What was measured:
aromatase enzyme [1] = target: T1, aromatase enzyme (Homo sapiens, UniProt P11511); details: inhibitor binding to the aromatase enzyme; from "recent studies"; cited from earlier work
T1 sequence (P11511 1-503): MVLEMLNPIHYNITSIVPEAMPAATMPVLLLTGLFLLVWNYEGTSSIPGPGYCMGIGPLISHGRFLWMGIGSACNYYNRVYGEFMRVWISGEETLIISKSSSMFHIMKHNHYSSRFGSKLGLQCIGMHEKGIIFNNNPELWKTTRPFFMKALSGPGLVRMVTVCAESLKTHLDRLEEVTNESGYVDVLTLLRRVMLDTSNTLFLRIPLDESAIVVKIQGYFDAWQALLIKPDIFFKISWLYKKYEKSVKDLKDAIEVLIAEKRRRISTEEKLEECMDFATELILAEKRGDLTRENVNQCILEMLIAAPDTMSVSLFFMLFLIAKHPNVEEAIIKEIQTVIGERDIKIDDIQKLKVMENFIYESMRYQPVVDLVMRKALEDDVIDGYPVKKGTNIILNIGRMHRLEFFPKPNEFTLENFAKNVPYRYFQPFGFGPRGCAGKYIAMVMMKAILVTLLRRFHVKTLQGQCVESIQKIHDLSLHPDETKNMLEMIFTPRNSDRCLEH

aromatase enzyme [2] = target: T1, aromatase enzyme; test: aromatase enzyme inhibition (Ki); type: biochemical
Method: ATD acts as a suicide substrate by irreversibly binding to the aromatase enzyme and shutting down its activity. Because it is a non-androgenic compound, ATD has fewer side effects associated with anabolic/androgenic steroid use. […] A lower Ki value means the inhibitor binds more tightly to the enzyme and yields greater potency. […] Because it is administered in smaller doses, costs of use of ATD may also be lower. The savings may be passed on to the consumer and/or provide greater profits to the manufacturer. Additionally, with oral or percutaneous/transdermal doses of 25 mg to 150 mg per day in men, ATD will cause a significant increase in endogenous androgen levels with little or no decrease in endogenous estrogen.

For `C[C@]12CCC(=O)C=C1C(=O)C[C@@H]1[C@@H]2CC[C@]2(C)C(=O)CC[C@@H]12` [AT, androst-4-ene-3,6,17-trione], the Ki (aromatase enzyme [1]) is listed as 430 nM.

In the case of `C[C@]12C=CC(=O)C=C1C=C[C@@H]1[C@@H]2CC[C@]2(C)C(=O)CC[C@@H]12` [ATD, 1,4,6-androstatriene-3,17-dione], the “ratio of the Ki values (AT concentration relative to ATD for the same effect)” value (aromatase enzyme [2]) is reported as 2.39 times.
